Results taken from ChEMBL document CHEMBL1151418, “Breviane spiroditerpenoids from an extreme-tolerant Penicillium sp. isolated from a deep sea sediment sample” (J Nat Prod, 2009).
Structures can show the parent of a compound that is named as a salt.

Columns and labels:
[1] = tested on: HeLa; experiment: Growth inhibition of human HeLa cells at 10 ug/mL after 4 hrs by MTT assay; assay type: functional; settings: read-out: GI
[2] = Cytotoxicity against human C8166 cells after 4 days by MTT assay; assay type: cell-based
[3] = tested on: HIV-1 M:B_Lai; experiment: Antiviral activity against HIV-1 M:B_Lai replication in human C8166 cells assessed as inhibition of p24 antigen expression level after 4 days by ELISA; assay type: functional, organism-based; settings: Human immunodeficiency virus 1, LAI, C8166, 96 h

Row | Structure (SMILES) | inhibition of growth at 10 µg/mL [1] [%] | CC50 at 96 h [2] [µM] | EC50 [3] [µM]
1 | CC1=CC(=O)C=C[C@]2(C)[C@H]3[C@@H](O)C=C(C)[C@@]4(Cc5c(c(C)c(C)oc5=O)O4)[C@]3(C)CC[C@@H]12 [BREVIONE F] | 25.2 | > 100 | 14.7
2 | CC1=CC(=O)C=C[C@]2(C)[C@H]3[C@H](O)C=C(C)[C@@]4(Cc5c(c(C)c(C)oc5=O)O4)[C@]3(C)CC[C@@H]12 [BREVIONE G] | 44.9 |  | > 50
3 | CC1=CC(=O)C[C@@H]2O[C@@H]3C=C(C)[C@@]45Oc6c(C)c(C)oc(=O)c6[C@@H]4O[C@H](O)[C@]54CC[C@@H]1[C@@]2(C)[C@@H]34 [BREVIONE H] | 25.3 |  | > 50
4 | CC(C)(C)NC(=O)[C@@H]1CN(Cc2cccnc2)CCN1C[C@@H](O)C[C@@H](Cc1ccccc1)C(=O)N[C@H]1c2ccccc2C[C@H]1O [INDINAVIR SULFATE] |  |  | 0.00871
